Read-outs that look alike come from different tables or passages of the source.
Tests used:
[1] = target: T1, dopamine transporter (Macaca fascicularis, UniProt Q9GJT6); experiment: Dopamine transporter assay: inhibition of {3H}WIN 35,428 binding in caudate-putamen membranes; set-up: species or system rhesus or cynomolgus monkey; conditions: for IC50: {3H}WIN 35,428 binding, monkey caudate-putamen; for SERT/DAT: selectivity ratio of IC50 values
T1 construct: The caudate-putamen was dissected from coronal slices and yielded 1.4±0.4 g tissue; Membranes were prepared as described previously; from tissue; host or cells: caudate-putamen membranes of adult cynomolgus and rhesus monkeys
T1 sequence (Q9GJT6 whole entry): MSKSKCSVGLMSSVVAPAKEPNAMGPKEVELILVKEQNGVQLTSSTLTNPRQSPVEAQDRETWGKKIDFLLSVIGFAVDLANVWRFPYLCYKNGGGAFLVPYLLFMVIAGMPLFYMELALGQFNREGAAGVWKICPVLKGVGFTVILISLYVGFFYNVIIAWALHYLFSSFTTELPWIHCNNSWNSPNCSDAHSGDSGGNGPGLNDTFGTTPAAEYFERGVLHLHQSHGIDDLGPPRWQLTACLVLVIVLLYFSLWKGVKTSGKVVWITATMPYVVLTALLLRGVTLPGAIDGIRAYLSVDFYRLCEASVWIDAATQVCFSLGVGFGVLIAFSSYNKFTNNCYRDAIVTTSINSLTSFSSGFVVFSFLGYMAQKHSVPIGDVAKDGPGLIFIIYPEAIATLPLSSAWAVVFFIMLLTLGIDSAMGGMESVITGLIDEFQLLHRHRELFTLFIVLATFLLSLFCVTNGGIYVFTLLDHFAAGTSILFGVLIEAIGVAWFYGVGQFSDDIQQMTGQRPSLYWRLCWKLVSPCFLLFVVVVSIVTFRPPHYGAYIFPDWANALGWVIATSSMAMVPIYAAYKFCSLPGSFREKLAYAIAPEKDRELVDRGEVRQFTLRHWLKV

[2] = target: T2, serotonin transporter (Macaca mulatta, UniProt Q9MYX0); experiment: Serotonin transporter assay: inhibition of {3H}citalopram binding in caudate-putamen membranes; set-up: species or system rhesus or cynomolgus monkey
T2 construct: The serotonin transporter was assayed in caudate-putamen membranes using conditions similar to those for the dopamine transporter; from tissue; host or cells: caudate-putamen membranes of adult cynomolgus and rhesus monkeys
T2 sequence (Q9MYX0 whole entry): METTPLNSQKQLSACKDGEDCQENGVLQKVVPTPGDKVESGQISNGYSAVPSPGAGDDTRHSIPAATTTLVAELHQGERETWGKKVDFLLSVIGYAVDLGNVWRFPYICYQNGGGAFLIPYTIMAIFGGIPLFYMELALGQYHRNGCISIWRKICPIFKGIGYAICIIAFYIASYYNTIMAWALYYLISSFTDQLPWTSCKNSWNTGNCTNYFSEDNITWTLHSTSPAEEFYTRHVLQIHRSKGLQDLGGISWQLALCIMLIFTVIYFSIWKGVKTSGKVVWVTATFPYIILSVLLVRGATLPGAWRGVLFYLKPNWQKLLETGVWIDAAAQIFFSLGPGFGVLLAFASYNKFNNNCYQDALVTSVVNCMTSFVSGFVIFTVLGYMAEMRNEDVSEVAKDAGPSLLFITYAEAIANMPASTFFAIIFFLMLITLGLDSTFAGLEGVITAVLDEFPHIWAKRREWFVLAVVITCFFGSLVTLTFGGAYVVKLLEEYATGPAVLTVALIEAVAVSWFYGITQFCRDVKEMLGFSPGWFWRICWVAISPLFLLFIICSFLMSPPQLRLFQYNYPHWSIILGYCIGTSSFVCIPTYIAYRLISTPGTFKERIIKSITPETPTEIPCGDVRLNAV

[3] = tested on: DAT; conditions: literature value, cited from earlier work; for IC50: binding to the DAT
[4] = IC50 (nM) SERT, Table 2, monkey caudate-putamen
[5] = Table 2, read-out: IC50 (nM) DAT
[6] = Table 2, monkey caudate-putamen, read-out: IC50 (nM) SERT

Row | SMILES | IC50 ([1]; IC50 (nM) DAT, Table 2) | SERT/DAT ([1]; Table 2) | IC50 [2, 4] | further results
1 | COC(=O)[C@@H]1[C@H]2C[C@H](O)[C@@H](C[C@H]1c1ccccc1)N2C (relative stereo) [Compound 17d, 2β-Carbomethoxy-3α-phenyl-6β-hydroxy-8-methyl-8-azabicyclo{3.2.1}octane] | 3530 nM | >3 | > 10000 nM | –
2 | COC(=O)[C@@H]1[C@H]2CC[C@@H](C[C@H]1c1ccc(Cl)c(Cl)c1)N2C [Compound 16a] | 0.38 nM | 73 | 27.7 nM | –
3 | COC(=O)[C@@H]1[C@H]2C[C@H](O)[C@@H](C[C@H]1c1ccc(Cl)c(Cl)c1)N2C (relative stereo) [Compound 17a, 2β-Carbomethoxy-3α-(3,4-dichlorophenyl) -6β-hydroxy-8-methyl-8-azabicyclo{3.2.1}octane] | 6.09 nM | 238 | 1450 nM | –
4 | COC(=O)[C@@H]1[C@H]2[C@H](O)C[C@@H](C[C@H]1c1ccc(Cl)c(Cl)c1)N2C (relative stereo) [Compound 18a, 2β-Carbomethoxy-3α(3,4-dichlorophenyl)-7β-hydroxy-8-methyl-8-azabicyclo{3.2.1}octane] | 1.19 nM | 1,170 | 1390 nM | –
5 | COC(=O)[C@@H]1[C@H]2C[C@H](O)[C@@H](C[C@H]1c1ccc(F)cc1)N2C (relative stereo) [Compound 17c, 2βCarbomethoxy-3α-(4-fluorophenyl)-6β-hydroxy-8-methyl-8-azabicyclo{3.2.1}octane] | 739 nM | 8 | 5820 nM | –
6 | COC(=O)C1C(c2ccc(Cl)c(Cl)c2)CC2CC(O)C1N2C (single isomer, unassigned) [(1R)-18a] | 482 nM | 11 | 5300 nM | –
7 | COC(=O)C1C(c2ccc(Cl)c(Cl)c2)CC2CCC1N2C (stereo not drawn) [Compound O-401, 2-carbomethoxy-3-(3,4-dichlorophenyl)-N -methyltropane] | – | – | – | IC50 [3]: 0.00109 µM
8 | CCC(=O)C1C(c2ccc(Cl)c(Cl)c2)CC2CC(O)C1N2C (stereo not drawn) [Compound 26, 1-{3α-(3,4-Dichlorophenyl)-7β-hydroxy-8-methyl-8-azabicyclo{3.2.1}oct-2-yl}propan-1-one] | – | – | – | IC50 ([1]; Table 1, read-out: IC50 (nM) DAT): 1.1 nM; IC50 ([2]; Table 1, monkey caudate-putamen, read-out: IC50 (nM) SERT): 2520 nM
9 | COC(=O)C1C(c2ccc3ccccc3c2)CC2C(O)CC1N2C (stereo not drawn) [Compound 17b, 2β-Carbomethoxy-3α-(2-naphthyl)-6β-hydroxy-8-methyl-8-azabicyclo{3.2.1}octane] | – | 6 | – | IC50 [1, 5]: 32 nM; IC50 [2, 6]: 180 nM
10 | COC(=O)[C@@H]1[C@H]2[C@H](O)C[C@@H](C[C@H]1c1ccc(F)cc1)N2C [Compound 18c, 2β-Carbomethoxy-3α-(4-fluorophenyl)-7β-hydroxy-8-methyl-8-azabicyclo{3.2.1}octane] | – | >120 | – | IC50 [1, 5]: 110 nM; IC50 [2, 6]: > 20000 nM
11 | COC(=O)[C@H]1[C@@H](OC(=O)c2ccccc2)C[C@@H]2CC[C@H]1N2C [(1R)-(−)-cocaine] | – | – | – | binds at the dopamine transporter more potently than (1S)-(+)-cocaine [3]: about 200 fold
12 | COC(=O)[C@@H]1[C@H]2CC[C@@H](C[C@H]1c1ccc(F)cc1)N2C (relative stereo) [Compound 16c] | 17.9 nM | 63 | 1130 nM | –
13 | COC(=O)C1C(c2ccc(Cl)c(Cl)c2)CC2CC(O)C1N2C (single isomer, unassigned) [(1S)-18a] | 0.76 nM | – | 1220 nM | –
15 | COC(=O)[C@@H]1[C@H]2[C@H](O)C[C@@H](C[C@H]1c1ccccc1)N2C (relative stereo) [Compound 18d, 2β-Carbomethoxy-3α-phenyl-7β-hydroxy-8-methyl-8-azabicyclo{3.2.1}octane] | 518 nM | >190 | > 100000 nM | –
16 | COC(=O)C1C(c2ccc3ccccc3c2)CC2CC(O)C1N2C (stereo not drawn) [Compound 18b, 2β-Carbomethoxy-3α-(2-naphthyl)-7β-hydroxy-8-methyl-8-azabicyclo{3.2.1}octane] | – | 34 | – | IC50 [2, 6]: 94 nM

Source: patent US20030125352A1, “Therapeutic tropane compounds” (priority 2001, published 2003)
